# Like-named read-outs stand apart in the source and are kept apart here.
# What was measured:
# [1] = system: ATCC 29212 E. faecalis; assay: MIC against ATCC 29212 E. faecalis; format: cell-based
# [2] = system: VRSA; assay: MIC against VRSA strain panel (VRS/NRS strains); format: cell-based; settings: Staphylococcus aureus
# [3] = system: vanC-1 VRE 49608; assay: MIC against vanC-1 VRE 49608; format: cell-based, Enterococcus spp.; settings: Enterococcus, VRE
# [4] = system: MRSA 33591; assay: Broth microdilution MIC, MRSA 33591; format: cell-based; settings: Staphylococcus aureus, read-out: MIC (MRSA 33591)
# [5] = system: MSSA; assay: MIC against MSSA strain panel; format: cell-based; settings: Staphylococcus aureus, the 4th table
# [6] = system: S. pneumoniae; assay: MIC against S. pneumoniae strain panel; format: cell-based; settings: Streptococcus pneumoniae
# [7] = system: Group B Strep; assay: MIC against Group B Strep strain panel; format: cell-based
structure (smiles),measurement,setting,value
"CN[C@H](CC(C)C)C(=O)N[C@H]1C(=O)N[C@@H](CC(N)=O)C(=O)N[C@H]2C(=O)N[C@H]3C(=O)N[C@H](C(=O)N[C@H](C(=O)O)c4cc(O)cc(O)c4-c4cc3ccc4O)[C@H](O)c3ccc(c(Cl)c3)Oc3cc2cc(c3O[C@@H]2O[C@H](CO)[C@@H](O)[C@H](O)[C@H]2O[C@H]2C[C@](C)(N)[C@H](O)[C@H](C)O2)Oc2ccc(cc2Cl)[C@H]1O [Vancomycin, vancomycin, reference compound]",MIC,"[1]; ATCC 29212 E. faecalis, the 6th table",2 µg/mL
same,MIC,"[1]; Enterococcus faecalis, ATCC29212",2 µg/mL
same,MIC,"[2]; NRS 1 / VRSA, NRS-1 (VRSA), the 3rd table",8 µg/mL
same,MIC,"[2]; NRS 1 / VRSA, NRS-1 VRSA, the 5th table",8 µg/mL
same,MIC,"[2]; NRS 2 / VRSA, NRS-2 VRSA, the 5th table",1 µg/mL
same,MIC,"[2]; VRSA, VRS-1 (VRSA), the 3rd table",> 64 µg/mL
same,MIC,"[2]; VRSA, VRS-1 VRSA, the 5th table",> 64 µg/mL
same,MIC,"[2]; VRSA, VRS-2 (VRSA), the 3rd table",32 µg/mL
same,MIC,"[2]; VRSA, VRS-2 VRSA, the 5th table",32 µg/mL
same,MIC,"[2]; VRSA, VRS-3a VRSA, the 5th table",32 µg/mL
same,MIC,"[2]; VRSA, VRS-3b VRSA, the 5th table",> 64 µg/mL
same,MIC,"[2]; VRSA, VRS-4 (VRSA), the 3rd table",32 µg/mL
same,MIC,"[2]; VRSA, VRS-4 VRSA, the 5th table",> 64 µg/mL
same,MIC,"[2]; VRSA, VRS-5 VRSA, the 5th table",> 64 µg/mL
same,MIC,"[2]; VRSA, VRS-6 VRSA, the 5th table",> 64 µg/mL
same,MIC,"[2]; VRSA, VRS-7 VRSA, the 5th table",> 64 µg/mL
same,MIC,"[2]; VRSA, VRS-8 VRSA, the 5th table",> 64 µg/mL
same,MIC,"[2]; VRSA, VRS-9 VRSA, the 5th table",> 64 µg/mL
same,MIC,"[2]; VRSA, VRS-10 VRSA, the 5th table",> 64 µg/mL
same,MIC,"[2]; VRSA, VRS-11a VRSA, the 5th table",> 64 µg/mL
same,MIC,"[2]; VRSA, VRS-11b VRSA, the 5th table",> 64 µg/mL
same,MIC,[3],32 µg/mL
same,MIC,[3]; read-out: MIC (vanC-1 VRE 49608),32 µg/mL
same,MIC,[4],2 µg/mL
same,MIC,[5]; VGP16-94 MSSA,0.5 µg/mL
same,MIC,[5]; VGP16-95 MSSA,0.5 µg/mL
same,MIC,[5]; VGP16-96 MSSA,0.5 µg/mL
same,MIC,[5]; VGP16-97 MSSA,0.5 µg/mL
same,MIC,[5]; VGP16-98 MSSA,0.5 µg/mL
same,MIC,[5]; VGP16-99 MSSA,1 µg/mL
same,MIC,[5]; VGP16-100 MSSA,0.5 µg/mL
same,MIC,[5]; VGP16-101 MSSA,1 µg/mL
same,MIC,[5]; VGP16-116 MSSA,0.5 µg/mL
same,MIC,[5]; VGP16-117 MSSA,0.5 µg/mL
same,MIC,"[6]; ATCC49619, ATCC 49619 S. pneumoniae, CA-MHB w/5% LHB, the 4th table",0.25 µg/mL
same,MIC,"[6]; ATCC49619, ATCC 49619 S. pneumoniae, the 7th table",≤ 0.125 µg/mL
same,MIC,"[6]; CO314937 S. pneumoniae, CA-MHB w/5% LHB, the 4th table",0.25 µg/mL
same,MIC,"[6]; CT3-5008 S. pneumoniae, the 7th table",0.25 µg/mL
same,MIC,"[6]; CT3-5803 S. pneumoniae, the 7th table",0.25 µg/mL
same,MIC,"[6]; CT3-8501 S. pneumoniae, the 7th table",0.25 µg/mL
same,MIC,"[6]; CT4-3048 S. pneumoniae, the 7th table",0.5 µg/mL
same,MIC,"[6]; CT4-9046 S. pneumoniae, the 7th table",0.25 µg/mL
same,MIC,"[6]; CT4-9693 S. pneumoniae, the 7th table",0.25 µg/mL
same,MIC,"[6]; CT5-6541 S. pneumoniae, the 7th table",0.25 µg/mL
same,MIC,"[6]; CT5-8032 S. pneumoniae, the 7th table",0.5 µg/mL
same,MIC,"[6]; CT5-9124 S. pneumoniae, the 7th table",0.25 µg/mL
same,MIC,"[6]; CT6-0670 S. pneumoniae, the 7th table",0.5 µg/mL
same,MIC,"[6]; CT6-7691 S. pneumoniae, the 7th table",0.25 µg/mL
same,MIC,"[6]; CT0200-2241 S. pneumoniae, the 7th table",0.25 µg/mL
same,MIC,"[6]; CT0200-2730 S. pneumoniae, the 7th table",0.25 µg/mL
same,MIC,"[6]; MD77773 S. pneumoniae, CA-MHB w/5% LHB, the 4th table",0.5 µg/mL
same,MIC,"[7]; 2008-57 Group B Strep, the 9th table",0.5 µg/mL
same,MIC,"[7]; 2008-70 Group B Strep, the 9th table",0.5 µg/mL
same,MIC,"[7]; 2008-87 Group B Strep, CA-MHB w/5% LHB, the 4th table",0.5 µg/mL
same,MIC,"[7]; 2008-115 Group B Strep, the 9th table",0.5 µg/mL
same,MIC,"[7]; 2009-20 Group B Strep, the 9th table",0.5 µg/mL
same,MIC,"[7]; 2009-40 Group B Strep, the 9th table",0.5 µg/mL
same,MIC,"[7]; 2009-43 Group B Strep, the 9th table",0.5 µg/mL
same,MIC,"[7]; 2009-51 Group B Strep, the 9th table",0.5 µg/mL
same,MIC,"[7]; 2009-57 Group B Strep, the 9th table",0.5 µg/mL
same,MIC,"[7]; 2009-59 Group B Strep, the 9th table",0.5 µg/mL
same,MIC,"[7]; 2009-60 Group B Strep, the 9th table",0.5 µg/mL
same,MIC,"[7]; 2009-61 Group B Strep, CA-MHB w/5% LHB, the 4th table",0.5 µg/mL

# Source: patent US20250312258A1, “2,3-PYRROLIDINEDIONE CONJUGATES AND METHODS OF USING THEREOF” (North Carolina State University, priority 2022, published 2025)
